Experimental data as given in ChEMBL document CHEMBL1201862, “PubChem BioAssay data set” (2004).
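Following 48 hours of exposure in 96-well plates, responses at five concentrations were used to interpolate endpoints linearly. GI50 is the concentration that inhibits growth by half.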 Calls of active or inactive are those of the source. Cut-off read from the data, not from the text of the source: active = GI50 up to about 1.1 µM and inactive = higher.

How the values were obtained:
Test in all cases: growth of human tumour cells (NCI), 48 h
RPMI-8226 = system: RPMI-8226
NCI-H226 = system: NCI-H226
MDA-MB-231 = system: MDA-MB-231
SNB-75 = system: SNB-75
M14 = system: M14
SK-OV-3 = system: SK-OV-3
U-251 = system: U-251
HCC 2998 = system: HCC 2998
COLO 205 = system: COLO 205
SF-268 = system: SF-268
OVCAR-3 = system: OVCAR-3
Hs-578T = system: Hs-578T
UACC-62 = system: UACC-62
RXF 393 = system: RXF 393
HCT-116 = system: HCT-116
OVCAR-8 = system: OVCAR-8
IGROV-1 = system: IGROV-1
SF-295 = system: SF-295
NCI-H460 = system: NCI-H460
SW-620 = system: SW-620

With `O=C(CCl)Nc1ccc(C(=O)N/N=C/c2ccc(Cl)cc2)cc1` the GI50 (RPMI-8226) was 2.42 µM (inactive), the GI50 (NCI-H226) was 18.6 µM (inactive) and the GI50 (MDA-MB-231) was 1.94 µM (inactive). For the same compound, the GI50 (SNB-75) was 14.9 µM (inactive), the GI50 (M14) was 6.41 µM (inactive) and the GI50 (SK-OV-3) was 3.03 µM (inactive). The GI50 (U-251) was 1.78 µM (inactive), the GI50 (HCC 2998) was 9.33 µM (inactive) and the GI50 (COLO 205) was 0.731 µM (active). For the same compound, the GI50 (SF-268) was 2.07 µM (inactive), the GI50 (OVCAR-3) was 1.84 µM (inactive) and the GI50 (Hs-578T) was 2.82 µM (inactive). For the same compound, the GI50 (UACC-62) was 3.56 µM (inactive), the GI50 (RXF 393) was 0.946 µM (active) and the GI50 (HCT-116) was 1.8 µM (inactive). The GI50 (OVCAR-8) was 2.29 µM (inactive), the GI50 (IGROV-1) was 0.728 µM (active) and the GI50 (SF-295) was 4.06 µM (inactive). The GI50 (NCI-H460) was 2 µM (inactive) and the GI50 (SW-620) was 2.74 µM (inactive).
For `CCOC(=O)c1cc(C#N)[nH]c1-c1ccsc1`, the GI50 (RPMI-8226) was 23.6 µM (inactive), the GI50 (NCI-H226) was 44.3 µM (inactive) and the GI50 (MDA-MB-231) was 41.6 µM (inactive). The GI50 (SNB-75) was 22.5 µM (inactive), the GI50 (M14) was 41.7 µM (inactive) and the GI50 (SK-OV-3) was 43.8 µM (inactive). For the same compound, the GI50 (U-251) was 25.8 µM (inactive), the GI50 (HCC 2998) was 29.8 µM (inactive) and the GI50 (COLO 205) was 32.2 µM (inactive). The GI50 (SF-268) was 22.8 µM (inactive), the GI50 (OVCAR-3) was 31 µM (inactive) and the GI50 (Hs-578T) was 25.7 µM (inactive). For the same compound, the GI50 (UACC-62) was 47.1 µM (inactive), the GI50 (RXF 393) was 17.3 µM (inactive) and the GI50 (HCT-116) was 38.4 µM (inactive). The GI50 (OVCAR-8) was 36.6 µM (inactive), the GI50 (IGROV-1) was 40.4 µM (inactive) and the GI50 (SF-295) was 38 µM (inactive). The GI50 (NCI-H460) was 32.2 µM (inactive) and the GI50 (SW-620) was 31.3 µM (inactive).
For `Brc1cccc(/C=C/CN2CCN(CCOC(c3ccccc3)c3ccccc3)CC2)c1`, the GI50 (RPMI-8226) was 4.08 µM (inactive), the GI50 (NCI-H226) was 19 µM (inactive) and the GI50 (MDA-MB-231) was 13.9 µM (inactive). For the same compound, the GI50 (SNB-75) was 6.08 µM (inactive), the GI50 (M14) was 13.2 µM (inactive) and the GI50 (SK-OV-3) was 17.6 µM (inactive). For the same compound, the GI50 (U-251) was 13.6 µM (inactive), the GI50 (HCC 2998) was 8.53 µM (inactive) and the GI50 (COLO 205) was 14.2 µM (inactive). For the same compound, the GI50 (SF-268) was 16.4 µM (inactive), the GI50 (OVCAR-3) was 15.4 µM (inactive) and the GI50 (Hs-578T) was 22.1 µM (inactive). For the same compound, the GI50 (UACC-62) was 17.4 µM (inactive), the GI50 (RXF 393) was 11.6 µM (inactive) and the GI50 (HCT-116) was 13.7 µM (inactive). The GI50 (OVCAR-8) was 16.1 µM (inactive), the GI50 (IGROV-1) was 15.9 µM (inactive) and the GI50 (SF-295) was 17.6 µM (inactive). The GI50 (NCI-H460) was 13.3 µM (inactive) and the GI50 (SW-620) was 17.8 µM (inactive).
For `CCC[C@H](C)[C@H]1NC(=O)[C@@H](NC(=O)[C@@H](CC(C)C)N(C)C(=O)C2CCCN2C(=O)[C@H](C)O)[C@@H](C)OC(=O)[C@H](CC(C)C)N(C)C(=O)[C@@H]2CCCN2C(=O)[C@H](CC(C)C)NC(=O)[C@@H](C)C(=O)[C@H](C(C)C)OC(=O)C[C@@H]1O` (stereo not given in full), the GI50 (RPMI-8226) was < 0.0025 µM (active), the GI50 (NCI-H226) was < 0.0025 µM (active) and the GI50 (MDA-MB-231) was < 0.0025 µM (active). For the same compound, the GI50 (SNB-75) was < 0.0025 µM (active), the GI50 (M14) was < 0.0025 µM (active) and the GI50 (SK-OV-3) was < 0.0025 µM (active). For the same compound, the GI50 (U-251) was < 0.0025 µM (active), the GI50 (HCC 2998) was < 0.0025 µM (active) and the GI50 (COLO 205) was < 0.0025 µM (active). For the same compound, the GI50 (SF-268) was < 0.0025 µM (active), the GI50 (OVCAR-3) was < 0.0025 µM (active) and the GI50 (Hs-578T) was < 0.0025 µM (active). The GI50 (UACC-62) was < 0.0025 µM (active), the GI50 (RXF 393) was < 0.0025 µM (active) and the GI50 (HCT-116) was < 0.0025 µM (active). For the same compound, the GI50 (OVCAR-8) was < 0.0025 µM (active), the GI50 (IGROV-1) was < 0.0025 µM (active) and the GI50 (SF-295) was < 0.0025 µM (active). The GI50 (NCI-H460) was < 0.0025 µM (active) and the GI50 (SW-620) was < 0.0025 µM (active).
For `CC(Oc1ccc(Cl)cc1Cl)C(=O)NN1C(=O)CC(=O)NC1=S` (stereo not given), the GI50 (RPMI-8226) was 46 µM (inactive), the GI50 (NCI-H226) was 82.8 µM (inactive) and the GI50 (MDA-MB-231) was > 100 µM (inactive). For the same compound, the GI50 (SNB-75) was > 100 µM (inactive), the GI50 (M14) was > 100 µM (inactive) and the GI50 (SK-OV-3) was > 100 µM (inactive). For the same compound, the GI50 (U-251) was > 100 µM (inactive), the GI50 (HCC 2998) was > 100 µM (inactive) and the GI50 (COLO 205) was > 100 µM (inactive). The GI50 (SF-268) was > 100 µM (inactive), the GI50 (OVCAR-3) was > 100 µM (inactive) and the GI50 (Hs-578T) was > 100 µM (inactive). The GI50 (UACC-62) was 36.5 µM (inactive), the GI50 (RXF 393) was > 100 µM (inactive) and the GI50 (HCT-116) was > 100 µM (inactive). The GI50 (OVCAR-8) was > 100 µM (inactive), the GI50 (IGROV-1) was > 100 µM (inactive) and the GI50 (SF-295) was > 100 µM (inactive). The GI50 (NCI-H460) was > 100 µM (inactive) and the GI50 (SW-620) was > 100 µM (inactive).
With `Cc1cc(=O)n2nc(SCc3ccccc3)sc2n1` the GI50 (RPMI-8226) was > 100 µM (inactive), the GI50 (NCI-H226) was > 100 µM (inactive) and the GI50 (MDA-MB-231) was > 100 µM (inactive). The GI50 (SNB-75) was > 100 µM (inactive), the GI50 (M14) was > 100 µM (inactive) and the GI50 (SK-OV-3) was > 100 µM (inactive). The GI50 (U-251) was > 100 µM (inactive), the GI50 (HCC 2998) was > 100 µM (inactive) and the GI50 (COLO 205) was > 100 µM (inactive). The GI50 (SF-268) was > 100 µM (inactive), the GI50 (OVCAR-3) was > 100 µM (inactive) and the GI50 (Hs-578T) was 25.4 µM (inactive). The GI50 (UACC-62) was 28.4 µM (inactive), the GI50 (RXF 393) was 60.3 µM (inactive) and the GI50 (HCT-116) was > 100 µM (inactive). For the same compound, the GI50 (OVCAR-8) was > 100 µM (inactive), the GI50 (IGROV-1) was > 100 µM (inactive) and the GI50 (SF-295) was > 100 µM (inactive). The GI50 (NCI-H460) was > 100 µM (inactive) and the GI50 (SW-620) was > 100 µM (inactive).
